Patent EP0327492A1, “Herbicidally and plantgrowth regulatory active quinoline and pyrindine compounds” (CIBA-GEIGY AG, priority 1988, dated 1989)

Legend:
Assay type in all cases: in vivo
Untersaaten in Mais = assay: Pre-post selectivity: growth inhibition of undersown grasses (post-emergent) versus maize (pre-emergent)
Excerpt: Verbindungen der Formel I zeigen in vorteilhafter Weise eine "pre-post-Selektivität" bei verscheidenen Gräsern in Maiskulturen.
Die wuchshemmende Wirkung in Gräsern ist in postemergenter Applikation stark ausgeprägt, während bei gleichzeitiger Preemergenter Applikation Maispflanzen in ihrem Wuchs nur geringfügig gehemmt werden. Derartige "pre-post-Selektivitäten" erlauben somit die Aussaat von Mais in Gräsern. Dabei soll der Zeitpunkt für die Applikation der Aktivsubstanz der Formel so gewählt werden, dass die Aktivsubstanz postemergent für die Gräser ober preemergent für den Mais angewendet wird. In den ersten Wochen ist der Zuwachs der Gräser so stark gehemmt, dass die Maispflanze sich ungehindert entfalten kann.
Eine Mischung von Gräsern (z.B. Poa, Festuca, Lolium, Bromus, Cynosurus) werden in 15 cm - Kunststofftöpfen mit steriler Landerde angesät und im Gewächshaus bei einer Tagestemperatur von 21°C und einer Nachttemperatur von 17°C angezogen. Die Beleuchtungsdauer beträgt 13,5 Stunden/Tag bei einer Lichtintensität von mind. 7000 Lux. Nach dem Ablauf werden die Pflanzen wöchentlich auf ca. 6 cm Höhe zurückgeschnitten. Ca. 42 Tage nach der Saat und 1 Tag nach dem letzten Schnitt erfolgt die Applikation mit 60-500 g Wirkstoff/ha als wässrige Spritzbrühe. Die Wasseraufwandmenge ist ca. 500 I/ha.
20 Tage nach der Behandlung wird der Versuch ausgewertet. Hierbei wird die Höhe des Neuzuwachses gemessen und in % Hemmung zum Durchschnitt der unbehandelten Kontrollen dargestellt. Die nekrotischen Schäden sind in % zur gesamten Blattfläche aufgeführt.
Mais der Sorte Blizzard G188 werden in 15 cm - Kunststofftöpfen mit steriler gesiebter Landerde angesät und im Gewächshaus bei einer Tagestemperatur von 22°C und einer Nachttemperatur von 19°C aufgestellt. Die Beleuchtungsdauer beträgt mindestens 13,5 Stunden/Tag bei einer Lichtintensität von mindestens 7000 Lux. 1 Tag nach der Saat erfolgt die Applikation mit 60-500 g Wirkstoff/ha, in der Regel 25 %ig formuliert und in wässriger Spritzbrühe. Die Wasseraufwandmenge ist ca. 200 I/ha.
16 Tage nach der Behandlung wird der Versuch ausgewertet. […]

Abutilon = assay: Post-emergent herbicidal action, contact herbicide (B.3); details: 500 bis 2000 [g/ha], 15 days after treatment
Method: (§1) Im Gewächshaus wird unmittelbar nach der Einsaat der Versuchspflanzen in Saatschalen die Erdoberfläche mit einer wässrigen Dispersion der Wirkstoffe, erhalten aus einem 25 %igen Emulsionskonzentrat behandelt. Es werden Konzentrationen von 2000-500 g Wirksubstanz/Hektar angewendet. Die Saatschalen werden im Gewächshaus bei 22-25° C und 50-70 % relativer Luftfeuchtigkeit gehalten und der Versuch nach 3 Wochen ausgewertet und die Resultate nach folgender Notenskala ausgewertet. • 1 Pflanze hat nicht gekeimt oder ist eingegangen • 2-3 sehr starke Schäden • 4 starke Schäden • 5 mittlere Schäden, die Pflanzen sind verkümmert • 6 Schäden, die Pflanze kann regenerieren • 7-8 leichte Schäden • 9 normales Wachstum, wie das unbehandelter Pflanzen
(§2) Boniturnoten von 1 bis 4 (insbesondere von 1 bis 3) weisen auf eine gute bis sehr gute Herbizidwirkung hin. Boniturnoten von 6 bis 9 (insbesondere 7 bis 9) weisen auf eine gute Toleranz (insbesondere bei Kulturpflanzen) hin.
(§3) Eine Anzahl Unkräuter, sowohl monokotyle wie dikotyle, werden nach dem Auflaufen (im 4- bis 6-Blattstadium) mit einer wässrigen Wirkstoffdispersion in einer Dosierung von 2000-500 g Wirksubstanz pro Hektar auf die Pflanzen gespritzt und diese bei 24°-26°C und 45-60 % relativer Luftfeuchtigkeit gehalten. 15 Tage nach der Behandlung wird der Versuch nach dem in Beispiel B.2. gegebenen Massstab bewertet.

Alopecurus myos. = assay: as above; details: 500 bis 2000 [g/ha], 15 days after treatment
Method: as §1, §2, §3

Amaranthus ret. = assay: as above; details: 500 bis 2000 [g/ha], 15 days after treatment
Method: as §1, §2, §3

Avena fatua = assay: as above; details: 500 bis 2000 [g/ha], 15 days after treatment
Method: as §1, §2, §3

Bromus tectorum = assay: as above; details: 500 bis 2000 [g/ha], 15 days after treatment
Method: as §1, §2, §3

Chenopodium Sp. = assay: as above; details: 500 bis 2000 [g/ha], 15 days after treatment
Method: as §1, §2, §3

Chrysanthe. leuc. = assay: as above; details: 500 bis 2000 [g/ha], 15 days after treatment
Method: as §1, §2, §3

Digitaria sang. = assay: as above; details: 500 bis 2000 [g/ha], 15 days after treatment
Method: as §1, §2, §3

Echinochloa crus galli = assay: as above; details: 500 bis 2000 [g/ha], 15 days after treatment
Method: as §1, §2, §3

Galium aparine = assay: as above; details: 500 bis 2000 [g/ha], 15 days after treatment
Method: as §1, §2, §3

Lolium perenne = assay: as above; details: 500 bis 2000 [g/ha], 15 days after treatment
Method: as §1, §2, §3

Sinapis = assay: as above; details: 500 bis 2000 [g/ha], 15 days after treatment
Method: as §1, §2, §3

Solanum nigrum = assay: as above; details: 500 bis 2000 [g/ha], 15 days after treatment
Method: as §1, §2, §3

Sorghum halep. = assay: as above; details: 500 bis 2000 [g/ha], 15 days after treatment
Method: as §1, §2, §3

Stellaria = assay: as above; details: 500 bis 2000 [g/ha], 15 days after treatment
Method: as §1, §2, §3

Veronica Sp. = assay: as above; details: 500 bis 2000 [g/ha], 15 days after treatment
Method: as §1, §2, §3

Xanthium Sp. = assay: as above; details: 500 bis 2000 [g/ha], 15 days after treatment
Method: as §1, §2, §3

Baumwolle = assay: Post-emergent herbicidal action (B.3), crop tolerance; details: 500 bis 2000 [g/ha], 15 days after treatment
Method: as §1, §2, §3

Soja = assay: as above; details: 500 bis 2000 [g/ha], 15 days after treatment
Method: as §1, §2, §3

SMILES: CC(C)C1(C)NC(c2nc3c(cc2C(=O)O)C(C)(C)CCC3)=NC1=O (stereo not drawn) [Verbindung 2.12, 2-(5-Isopropyl-5-methyl-1 H-imidazol-4-on-2-yl)-5,5-dimethyl-5,6,7,8-tetrahydrochinolin-3-carbonsäure]
- "pre-post-Selektivität" bei Untersaaten in Mais (Untersaaten in Mais): ausgeprägter "pre-post-Selektivität"

SMILES: CC1CCc2nc(C3=NC(=O)C(C)(C(C)C)N3)c(C(=O)O)cc21 (stereo not drawn) [Verbindung 2.06, 7H-5,6-Dihydro-2-(5-isopropyl-5-methyl-1 H-imidazol-4-on-2-yl)-5-methyl-1-pyrindin-3-carbonsäure]
- Herbizidwirkung (Abutilon): gute bis sehr gute Herbizidwirkung (Boniturnoten von 1 bis 4 (insbesondere von 1 bis 3) weisen auf eine gute bis sehr gute Herbizidwirkung hin)
- Herbizidwirkung (Alopecurus myos.): gute bis sehr gute Herbizidwirkung (Boniturnoten von 1 bis 4 (insbesondere von 1 bis 3) weisen auf eine gute bis sehr gute Herbizidwirkung hin)
- Herbizidwirkung (Amaranthus ret.): gute bis sehr gute Herbizidwirkung (Boniturnoten von 1 bis 4 (insbesondere von 1 bis 3) weisen auf eine gute bis sehr gute Herbizidwirkung hin)
- Herbizidwirkung (Avena fatua): gute bis sehr gute Herbizidwirkung (Boniturnoten von 1 bis 4 (insbesondere von 1 bis 3) weisen auf eine gute bis sehr gute Herbizidwirkung hin)
- Herbizidwirkung (Bromus tectorum): gute bis sehr gute Herbizidwirkung (Boniturnoten von 1 bis 4 (insbesondere von 1 bis 3) weisen auf eine gute bis sehr gute Herbizidwirkung hin)
- Herbizidwirkung (Chenopodium Sp.): gute bis sehr gute Herbizidwirkung (Boniturnoten von 1 bis 4 (insbesondere von 1 bis 3) weisen auf eine gute bis sehr gute Herbizidwirkung hin)
- Herbizidwirkung (Chrysanthe. leuc.): gute bis sehr gute Herbizidwirkung (Boniturnoten von 1 bis 4 (insbesondere von 1 bis 3) weisen auf eine gute bis sehr gute Herbizidwirkung hin)
- Herbizidwirkung (Digitaria sang.): gute bis sehr gute Herbizidwirkung (Boniturnoten von 1 bis 4 (insbesondere von 1 bis 3) weisen auf eine gute bis sehr gute Herbizidwirkung hin)
- Herbizidwirkung (Echinochloa crus galli): gute bis sehr gute Herbizidwirkung (Boniturnoten von 1 bis 4 (insbesondere von 1 bis 3) weisen auf eine gute bis sehr gute Herbizidwirkung hin)
- Herbizidwirkung (Galium aparine): gute bis sehr gute Herbizidwirkung (Boniturnoten von 1 bis 4 (insbesondere von 1 bis 3) weisen auf eine gute bis sehr gute Herbizidwirkung hin)
- Herbizidwirkung (Lolium perenne): gute bis sehr gute Herbizidwirkung (Boniturnoten von 1 bis 4 (insbesondere von 1 bis 3) weisen auf eine gute bis sehr gute Herbizidwirkung hin)
- Herbizidwirkung (Sinapis): gute bis sehr gute Herbizidwirkung (Boniturnoten von 1 bis 4 (insbesondere von 1 bis 3) weisen auf eine gute bis sehr gute Herbizidwirkung hin)
- Herbizidwirkung (Solanum nigrum): gute bis sehr gute Herbizidwirkung (Boniturnoten von 1 bis 4 (insbesondere von 1 bis 3) weisen auf eine gute bis sehr gute Herbizidwirkung hin)
- Herbizidwirkung (Sorghum halep.): gute bis sehr gute Herbizidwirkung (Boniturnoten von 1 bis 4 (insbesondere von 1 bis 3) weisen auf eine gute bis sehr gute Herbizidwirkung hin)
- Herbizidwirkung (Stellaria): gute bis sehr gute Herbizidwirkung (Boniturnoten von 1 bis 4 (insbesondere von 1 bis 3) weisen auf eine gute bis sehr gute Herbizidwirkung hin)
- Herbizidwirkung (Veronica Sp.): gute bis sehr gute Herbizidwirkung (Boniturnoten von 1 bis 4 (insbesondere von 1 bis 3) weisen auf eine gute bis sehr gute Herbizidwirkung hin)
- Herbizidwirkung (Xanthium Sp.): gute bis sehr gute Herbizidwirkung (Boniturnoten von 1 bis 4 (insbesondere von 1 bis 3) weisen auf eine gute bis sehr gute Herbizidwirkung hin)
- Toleranz (im Wachstum beeinflusst) (Baumwolle): gute Toleranz (Boniturnoten von 6 bis 9 (insbesondere 7 bis 9) weisen auf eine gute Toleranz (insbesondere bei Kulturpflanzen) hin)
- Toleranz (im Wachstum beeinflusst) (Soja): gute Toleranz (Boniturnoten von 6 bis 9 (insbesondere 7 bis 9) weisen auf eine gute Toleranz (insbesondere bei Kulturpflanzen) hin)

SMILES: CC1CCc2cc3c(nc2C1)C1=NC(C)(C(C)C)C(=O)N1C3=O (stereo not drawn) [Verbindung 3.03, 2,9-Dimethyl-2-isopropyl-7,8,9,10-tetrahydro-3H,5H-imidazo[1',2':1,2]pyrrolo[3,4-b]chinolin-3,5-dion]
- "pre-post-Selektivität" bei Untersaaten in Mais (Untersaaten in Mais): ausgeprägter "pre-post-Selektivität"
